This note sets out measurements from ChEMBL document CHEMBL5370540, “Discovery of pyrimidine-5-carboxamide derivatives as novel salt-inducible kinases (SIKs) inhibitors for inflammatory bowel disease (IBD) treatment” (Eur J Med Chem, 2023).

Data set [1] in a line: Protein binding in human plasma at 10 uM measured for 8 hrs by dialysis method. Format: ADME, cell-free. Conditions: read-out: PPB (converted).
A short description of data set [2]: AUC (0 to t) in Sprague-Dawley rat at 10 mg/kg, po measured upto 24 hrs by LC/MS/MS analysis. As to conditions: in vivo. Further details: dose 10 mg/kg, time < 24 hrs, route po. Format: ADME, organism-based.
Data set [3] in a line: Cmax in Sprague-Dawley rat at 10 mg/kg, po measured upto 24 hrs by LC/MS/MS analysis. The format is ADME, organism-based. Further details: dose 10 mg/kg, time < 24 hrs, route po. Conditions: in vivo.
For data set [4], the target named is Tyrosine-protein kinase Fyn (Homo sapiens) (UniProt P06241). In words: Inhibition of Fyn (unknown origin) at 1 uM.
Chain of Tyrosine-protein kinase Fyn (Homo sapiens) (P06241 2-537 limits assumed): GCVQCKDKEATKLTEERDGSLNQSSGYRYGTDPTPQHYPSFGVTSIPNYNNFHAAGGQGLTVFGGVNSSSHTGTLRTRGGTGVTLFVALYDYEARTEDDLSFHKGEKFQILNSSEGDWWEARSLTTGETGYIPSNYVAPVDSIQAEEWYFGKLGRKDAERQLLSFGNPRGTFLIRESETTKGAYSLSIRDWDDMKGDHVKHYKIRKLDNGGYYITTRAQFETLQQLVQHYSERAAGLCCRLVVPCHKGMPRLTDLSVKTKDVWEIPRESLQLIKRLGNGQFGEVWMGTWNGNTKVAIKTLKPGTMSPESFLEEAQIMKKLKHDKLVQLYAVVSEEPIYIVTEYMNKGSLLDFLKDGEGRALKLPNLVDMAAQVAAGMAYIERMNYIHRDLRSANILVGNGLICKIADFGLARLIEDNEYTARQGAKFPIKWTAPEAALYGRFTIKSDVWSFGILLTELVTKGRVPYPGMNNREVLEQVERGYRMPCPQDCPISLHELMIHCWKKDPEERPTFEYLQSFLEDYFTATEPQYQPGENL
For data set [5], the system named is Mus musculus. Briefly: Antiinflammatory activity in DSS-induced colitis C57BL/6J mouse model assessed as decrease in disease activity index at 7.5 to 30 mg/kg, ip. The format is functional, organism-based. Conditions: dose 7.5-30 mg/kg.
Data set [6] relates to BMDM. Briefly: Upregulation of CREB-dependent gene transcription in C57BL/6J mouse BMDM cells assessed as CRTC3 translocation to nucleus at 500 nM preincubated for 1 hr followed by LPS stimulation measured after 1 hr by immunofluorescence analysis. Conditions: time 2.0 hrs. Format: functional, cell-based.
Data set [7] deals with Serine/threonine-protein kinase SIK2 (Mus musculus) (UniProt Q8CFH6). In words: Inhibition of SIK2 in C57BL/6J mouse BMDM cells assessed as increase in IL-12 mRNA level at 500 nM preincubated for 1 hr followed by LPS stimulation measured for 1 hr by qPCR analysis. As to conditions: time 2.0 hrs. Format: cell-based.
Chain of Serine/threonine-protein kinase SIK2 (Mus musculus) (Q8CFH6 whole entry): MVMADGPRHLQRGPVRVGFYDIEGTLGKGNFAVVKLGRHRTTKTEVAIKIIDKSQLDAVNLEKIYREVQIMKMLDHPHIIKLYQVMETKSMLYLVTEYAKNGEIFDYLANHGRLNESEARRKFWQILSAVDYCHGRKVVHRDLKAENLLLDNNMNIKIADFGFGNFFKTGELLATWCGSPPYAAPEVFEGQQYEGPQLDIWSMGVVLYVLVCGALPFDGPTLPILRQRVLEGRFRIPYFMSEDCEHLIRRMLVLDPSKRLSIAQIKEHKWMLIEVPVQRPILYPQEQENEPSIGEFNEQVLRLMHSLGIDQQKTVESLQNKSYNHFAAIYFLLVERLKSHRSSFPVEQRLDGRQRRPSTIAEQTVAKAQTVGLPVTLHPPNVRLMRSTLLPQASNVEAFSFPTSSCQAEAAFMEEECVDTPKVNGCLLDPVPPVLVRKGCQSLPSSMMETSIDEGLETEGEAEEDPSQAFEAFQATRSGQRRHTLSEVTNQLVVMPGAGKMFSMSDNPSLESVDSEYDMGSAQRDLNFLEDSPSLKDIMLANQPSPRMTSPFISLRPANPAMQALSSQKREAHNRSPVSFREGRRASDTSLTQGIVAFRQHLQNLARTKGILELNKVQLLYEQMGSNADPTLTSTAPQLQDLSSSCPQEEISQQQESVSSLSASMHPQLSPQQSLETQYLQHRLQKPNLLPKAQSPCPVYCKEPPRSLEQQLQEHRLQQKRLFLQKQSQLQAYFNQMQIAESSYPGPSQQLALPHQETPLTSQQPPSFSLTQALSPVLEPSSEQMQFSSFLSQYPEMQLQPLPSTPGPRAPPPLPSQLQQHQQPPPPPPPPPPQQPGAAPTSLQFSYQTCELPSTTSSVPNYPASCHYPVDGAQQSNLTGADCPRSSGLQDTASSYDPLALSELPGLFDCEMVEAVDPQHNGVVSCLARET
In data set [8] the target is Tyrosine-protein kinase Tec (Homo sapiens) (UniProt P42680). Briefly: Inhibition of Tec (unknown origin) at 1 uM.
Chain of Tyrosine-protein kinase Tec (Homo sapiens) (P42680 whole entry): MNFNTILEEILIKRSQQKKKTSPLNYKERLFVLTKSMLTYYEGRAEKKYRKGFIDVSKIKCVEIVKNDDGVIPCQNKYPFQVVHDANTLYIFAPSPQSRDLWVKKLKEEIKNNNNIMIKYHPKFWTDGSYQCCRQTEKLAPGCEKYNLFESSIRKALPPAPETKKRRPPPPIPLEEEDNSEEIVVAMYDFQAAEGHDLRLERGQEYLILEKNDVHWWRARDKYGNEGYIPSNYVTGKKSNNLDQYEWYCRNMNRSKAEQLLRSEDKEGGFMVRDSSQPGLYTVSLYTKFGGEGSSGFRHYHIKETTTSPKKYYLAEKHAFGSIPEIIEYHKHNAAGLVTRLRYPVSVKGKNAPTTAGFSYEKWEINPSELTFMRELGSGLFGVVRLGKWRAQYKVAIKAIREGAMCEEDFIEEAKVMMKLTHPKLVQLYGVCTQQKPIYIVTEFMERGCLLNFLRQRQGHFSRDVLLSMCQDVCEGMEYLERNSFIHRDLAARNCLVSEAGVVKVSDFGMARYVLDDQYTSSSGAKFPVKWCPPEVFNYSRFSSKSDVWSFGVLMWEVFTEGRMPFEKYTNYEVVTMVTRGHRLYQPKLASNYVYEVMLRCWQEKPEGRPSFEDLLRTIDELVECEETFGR
The test system of data set [9] is Mus musculus. Briefly: Antiinflammatory activity in DSS-induced colitis C57BL/6J mouse model assessed as decrease in thickening of inherent base layer at 7.5 to 15 mg/kg, ip measured after 12 days by H&E staining based analysis. The format is functional, organism-based. As to conditions: dose 7.5-15 mg/kg, time 12.0 day.
Data set [10] is described as follows: Oral bioavailability in Sprague-Dawley rat at 10 mg/kg measured upto 24 hrs by LC/MS/MS analysis. As to conditions: in vivo. Format: ADME, organism-based.
The target of data set [11] is Serine/threonine-protein kinase SIK2 (Mus musculus) (UniProt Q8CFH6). Briefly: Inhibition of SIK2 in C57BL/6J mouse BMDM cells assessed as increase in IL-10 mRNA level at 500 nM preincubated for 1 hr followed by LPS stimulation measured for 2 to 4 hrs by qPCR analysis. Format: cell-based. Conditions: time 3-5 hrs. (Real-time PCR tracks product formation cycle by cycle.)

Data set [12] deals with Tyrosine-protein kinase Yes (Homo sapiens) (UniProt P07947). In words: Inhibition of Yes (unknown origin) at 1 uM.
Data set [13] deals with Serine/threonine-protein kinase SIK2 (Mus musculus) (UniProt Q8CFH6). Briefly: Inhibition of SIK2 in C57BL/6J mouse BMDM cells assessed as increase in IL-12 mRNA level at 500 nM preincubated for 1 hr followed by LPS stimulation measured after 8 hrs by qPCR analysis. As to conditions: time 9.0 hrs. The format is cell-based.
The test system of data set [14] is BMDM. In words: Anti-inflammatory activity against C57BL/6J mouse BMDM cells assessed as increase in IL-10 level at 500 nM preincubated for 1 hr followed by LPS stimulation measured after 2 to 8 hrs by ELISA method. The format is functional, cell-based. Conditions: time 3-9 hrs. (An ELISA detects its analyte on a solid surface through an enzyme-linked reagent.)

Data set [15] deals with Tyrosine-protein kinase FRK (Homo sapiens) (UniProt P42685). Briefly: Inhibition of PTK5 (unknown origin) at 1 uM.
Chain of Tyrosine-protein kinase FRK (Homo sapiens) (P42685 whole entry): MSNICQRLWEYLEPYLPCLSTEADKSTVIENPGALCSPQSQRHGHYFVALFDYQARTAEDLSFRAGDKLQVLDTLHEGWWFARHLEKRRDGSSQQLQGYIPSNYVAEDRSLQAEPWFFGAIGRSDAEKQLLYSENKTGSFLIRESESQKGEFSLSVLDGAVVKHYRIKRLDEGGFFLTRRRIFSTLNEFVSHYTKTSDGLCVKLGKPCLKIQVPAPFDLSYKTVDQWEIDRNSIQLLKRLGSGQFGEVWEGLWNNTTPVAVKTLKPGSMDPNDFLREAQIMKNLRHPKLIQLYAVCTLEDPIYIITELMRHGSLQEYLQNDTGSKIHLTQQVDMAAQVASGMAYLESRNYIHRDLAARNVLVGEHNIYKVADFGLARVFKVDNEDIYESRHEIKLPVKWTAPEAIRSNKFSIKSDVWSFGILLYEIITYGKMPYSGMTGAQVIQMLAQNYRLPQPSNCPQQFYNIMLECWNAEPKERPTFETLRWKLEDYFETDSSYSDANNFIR
Data set [16] has as its system BMDM. Briefly: Anti-inflammatory activity against C57BL/6J mouse BMDM cells assessed as decrease in IL-12 level at 500 nM preincubated for 1 hr followed by LPS stimulation measured after 8 hrs by ELISA method. The format is functional, cell-based. As to conditions: time 9.0 hrs.
For data set [17], the target named is Serine/threonine-protein kinase SIK2 (Homo sapiens, UniProt Q9H0K1). Briefly: Inhibition of SIK2 (unknown origin).
Chain of Serine/threonine-protein kinase SIK2 (Q9H0K1 whole entry): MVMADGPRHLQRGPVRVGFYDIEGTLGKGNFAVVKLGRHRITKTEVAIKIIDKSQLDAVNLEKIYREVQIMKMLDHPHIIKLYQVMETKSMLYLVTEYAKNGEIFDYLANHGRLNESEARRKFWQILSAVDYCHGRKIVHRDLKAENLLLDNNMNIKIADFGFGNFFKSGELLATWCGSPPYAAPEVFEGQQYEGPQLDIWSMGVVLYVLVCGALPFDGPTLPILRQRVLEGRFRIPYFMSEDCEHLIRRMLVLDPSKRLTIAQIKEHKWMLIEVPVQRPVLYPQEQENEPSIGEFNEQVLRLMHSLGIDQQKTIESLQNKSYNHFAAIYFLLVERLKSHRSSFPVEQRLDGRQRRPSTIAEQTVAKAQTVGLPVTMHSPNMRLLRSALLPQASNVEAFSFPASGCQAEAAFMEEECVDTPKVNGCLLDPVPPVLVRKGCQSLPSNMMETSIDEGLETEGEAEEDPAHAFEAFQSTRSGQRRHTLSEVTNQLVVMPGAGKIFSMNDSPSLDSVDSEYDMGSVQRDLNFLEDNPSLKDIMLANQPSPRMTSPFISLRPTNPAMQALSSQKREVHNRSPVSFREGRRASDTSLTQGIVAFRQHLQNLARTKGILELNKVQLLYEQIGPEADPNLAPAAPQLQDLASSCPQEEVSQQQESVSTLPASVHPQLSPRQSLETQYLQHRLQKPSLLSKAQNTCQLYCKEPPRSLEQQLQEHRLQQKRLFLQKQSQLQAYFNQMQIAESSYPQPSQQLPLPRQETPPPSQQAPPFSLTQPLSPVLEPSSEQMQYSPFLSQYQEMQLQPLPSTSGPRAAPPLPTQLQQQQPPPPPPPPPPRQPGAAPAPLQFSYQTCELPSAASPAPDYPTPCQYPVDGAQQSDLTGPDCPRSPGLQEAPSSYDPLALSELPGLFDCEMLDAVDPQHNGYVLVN
The nature of data set [18]: Half life in Sprague-Dawley rat at 10 mg/kg, po measured upto 24 hrs by LC/MS/MS analysis. Format: ADME, organism-based. Conditions: in vivo.
The target of data set [19] is Cytoplasmic tyrosine-protein kinase BMX (Homo sapiens) (UniProt P51813). In words: Inhibition of Bmx (unknown origin) at 1 uM.
Chain of Cytoplasmic tyrosine-protein kinase BMX (Homo sapiens) (P51813 whole entry): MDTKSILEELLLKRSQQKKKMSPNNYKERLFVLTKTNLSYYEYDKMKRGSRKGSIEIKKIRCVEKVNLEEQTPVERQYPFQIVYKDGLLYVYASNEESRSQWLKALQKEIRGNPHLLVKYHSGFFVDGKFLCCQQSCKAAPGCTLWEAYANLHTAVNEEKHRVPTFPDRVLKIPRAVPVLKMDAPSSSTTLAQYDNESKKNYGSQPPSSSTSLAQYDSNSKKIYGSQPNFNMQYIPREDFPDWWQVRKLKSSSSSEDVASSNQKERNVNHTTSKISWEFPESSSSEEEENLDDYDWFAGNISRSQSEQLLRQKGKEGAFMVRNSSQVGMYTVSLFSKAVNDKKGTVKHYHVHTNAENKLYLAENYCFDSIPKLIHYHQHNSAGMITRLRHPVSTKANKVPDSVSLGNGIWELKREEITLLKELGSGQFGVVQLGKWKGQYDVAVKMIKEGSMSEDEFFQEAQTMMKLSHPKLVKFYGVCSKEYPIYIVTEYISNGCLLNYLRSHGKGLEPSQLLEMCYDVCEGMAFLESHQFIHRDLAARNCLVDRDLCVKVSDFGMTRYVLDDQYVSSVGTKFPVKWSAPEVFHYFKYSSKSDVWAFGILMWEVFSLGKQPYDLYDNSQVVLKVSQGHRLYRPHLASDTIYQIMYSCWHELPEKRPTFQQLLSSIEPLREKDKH
Data set [20] concerns BMDM. Briefly: Cytotoxicity against C57BL/6J mouse BMDM cells assessed as cell viability upto 500 nM preincubated for 1 hr followed by LPS stimulation measured after 2 to 4 hrs by CCK8 assay. The format is toxicity, cell-based. As to conditions: 0.5 µM, time 3-5 hrs. (Tetrazolium dyes change colour on reduction, which living cells bring about.)
The target in data set [21] is Tyrosine-protein kinase Lyn (Homo sapiens) (UniProt P07948). In words: Inhibition of Lyn (unknown origin) at 1 uM.
Chain of Tyrosine-protein kinase Lyn (Homo sapiens) (P07948 2-512 limits assumed): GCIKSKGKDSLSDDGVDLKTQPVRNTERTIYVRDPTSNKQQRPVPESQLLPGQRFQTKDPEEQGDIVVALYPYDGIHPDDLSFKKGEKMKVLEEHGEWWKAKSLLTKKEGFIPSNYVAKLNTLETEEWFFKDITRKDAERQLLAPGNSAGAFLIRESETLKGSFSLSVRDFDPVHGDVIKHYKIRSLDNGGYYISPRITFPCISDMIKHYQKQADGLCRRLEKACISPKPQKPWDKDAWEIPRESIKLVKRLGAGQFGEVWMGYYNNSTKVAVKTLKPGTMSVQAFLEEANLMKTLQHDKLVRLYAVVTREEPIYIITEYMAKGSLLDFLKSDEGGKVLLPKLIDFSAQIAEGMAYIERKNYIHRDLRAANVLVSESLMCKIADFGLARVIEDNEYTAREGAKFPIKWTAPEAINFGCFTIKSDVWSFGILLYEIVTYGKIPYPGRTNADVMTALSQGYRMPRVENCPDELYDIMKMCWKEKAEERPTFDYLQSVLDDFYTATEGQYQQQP
Data set [22] addresses Serine/threonine-protein kinase SIK2 (Mus musculus) (UniProt Q8CFH6). Briefly: Inhibition of SIK2 in C57BL/6J mouse BMDM cells assessed as increase in SPHK1 mRNA level at 500 nM preincubated for 1 hr followed by LPS stimulation measured upto 8 hrs by qPCR analysis. Format: cell-based. As to conditions: time <= 9.0 hrs.
Data set [23] concerns Mus musculus. In words: Antiinflammatory activity in DSS-induced colitis C57BL/6J mouse model assessed as increase in colon length at 50 to 100 mg/kg, po measured after 12 days. The format is functional, organism-based. Conditions: dose 50-100 mg/kg, time 12.0 day.
The target in data set [24] is Serine/threonine-protein kinase SIK2 (Mus musculus) (UniProt Q8CFH6). Briefly: Inhibition of SIK2 in C57BL/6J mouse BMDM cells assessed as increase in c-FOS mRNA level at 500 nM preincubated for 1 hr followed by LPS stimulation measured for 2 to 4 hrs by qPCR analysis. The format is cell-based. As to conditions: time 3-5 hrs.

Active and inactive are the calls of the source.

Consider `Cc1cccc(F)c1NC(=O)c1cnc(Nc2ccc(N3CCN(C)CC3)c(F)c2)nc1NC1CCC1`, for which, in [1], the fraction unbound at 8 h, 10 µM was 0.206. For the same molecule, the AUC(0-t) at 24 h in [2] turned out to be 9340 ng·h/mL. In [3], this molecule came in with a Cmax of 572 ng/mL. Moreover, the inhibition result in [4], in data set [7], in data set [8], in data set [12], in data set [15] and in data set [19] was “Active” throughout. Further, the inhibition entry in data set [21] and in data set [22] was “Active” each time. For the same molecule, the outcome in the data set on Mus musculus [5], with BMDM [6], with Mus musculus [9], with BMDM [14], in the data set with BMDM [16] and with Mus musculus [23] was Active. This molecule also had a bioavailability in [10] of 23%. Besides, the inhibition result in [11], in data set [13] and in data set [24] was “inactive” throughout. Besides, the midpoint of inhibition in [17], the IC50, lay at 8 nM. The half-life in data set [18] was 17.1 h. In the data set on BMDM [20], the Activity entry is given as “Non-Toxic”.

A word on the AUC(0-t): it is the area under the concentration-time curve up to a stated or last time point. Low values mean less exposure, high ones more exposure. For orientation: Cmax means the maximum level reached in the sampled fluid or tissue. As a reminder, the bioavailability is the share of a dose that reaches the circulation, judged against a reference dose that is usually intravenous. A higher bioavailability goes with good availability. One may read the IC50 as the concentration that inhibits the measured activity by half. Higher therefore signals a need for much substance. As a reminder, the half-life is the time needed for the level to fall by half in the phase considered. Low readings indicate rapid decline, high ones slow decline.
